This note sets out measurements from patent publication US20110105436A1, “HETEROARYL COMPOUNDS, COMPOSITIONS, AND METHODS OF USE IN CANCER TREATMENT” (AUCKLAND UNISERVICES LIMITED, priority 2008, published 2011).

For one assay, the system named is RCC4/VHL cells. As to the kind of experiment: XTT assay, RCC4/VHL versus RCC4 cells (selectivity ratio). Type of assay: cell-based. The settings on record: selectivity ratio, IC50 in RCC4/VHL cells/IC50 in RCC4 cells. The method, then: (§1) Cell Viability and XTT assays. For cell viability, 100,000 cells were plated in a 12-well plate. The following day, 1.25 μM STF-62247 was added in the presence or absence of 1 mM 3-MA for 24 hours at 37° C. Cells were trypsinized and counted by trypan blue exclusion. For XTT assays, 5000 RCC4 with and without VHL cells or 2,500 SN12C with and without VHL shRNA cells were plated in 96-well plates. The following day, vehicle (DMSO), STF-62247 or each of 19 analogs were added to media by serial dilution. Four days later, the media was aspirated and XTT solution containing 0.3 mg/ml of XTT (Sigma Chemical Co) in Phenol Red-free media, 20% FCS and 2.65 mg/ml N-methyl dibenzopyrazine methyl sulfate (PMS) was added to the cells and incubated at 37° C. for 1-2 hours. Metabolism of XTT was quantified by measuring the absorbance at 450 nm on a plate reader.
A. RCC4 and RCC4/VHL were treated with 1.25 μM of each 19 analogs for 20 hours and the presence of vacuoles was examined under light microscopy. B. Western blot for LC3 after treatment with each compound. Tubulin was used as loading control. Ratio is the relative from the IC50 in RCC4/VHL cells/IC50 in RCC4 cells. C. Acidic vesicle organelles (AVO) measured by FACS analysis in cells treated with 1.25 μM of STF-62247 or with compounds 21, 15, 25, 47, and 53 and stained with acridine orange.
On the technique in general: Formazan colour is commonly taken as a measure of viable cells.

The subject of a further assay is RCC4 cells. As to the kind of experiment: XTT assay in VHL-deficient RCC4 cells. Type of assay: cell-based. The following applies: Homo sapiens, 96 h, XTT assay, VHL-deficient RCC4 cells, four days. The method, then:
as §1

Some results are limits rather than exact numbers.

The IC50 is the concentration at which inhibition is half-maximal. As to `Clc1ccccc1Nc1nc(-c2ccncc2)cs1` [Compound 115, N-[2-Chlorophenyl]-4-(4-pyridinyl)-1,3-thiazol-2-amine], the Ratio in the assay on RCC4/VHL cells (Table 1) is reported as over 1.4. This compound displayed an IC50 in the assay with RCC4 cells (Table 1) of 27.6 µM.

Turning to `Cc1cccc(Nc2nc(-c3ccncc3)c(CO)s2)c1` [Compound 74, [2-[(3-Methylphenyl)amino]-4-(4-pyridinyl)-1,3-thiazol-5-yl]methanol], the Ratio in the assay with RCC4/VHL cells (Table 1) worked out at 2.4. Moreover, in the assay with RCC4 cells (Table 1), it took 7 µM to reach half-maximal inhibition (IC50).

For `OCCc1ccc(Nc2nc(-c3ccncc3)cs2)cc1` [Compound 23, 2-(4-{[4-(4-Pyridinyl)-1,3-thiazol-2-yl]amino}phenyl)ethanol], the Ratio with RCC4/VHL cells (Table 1) is listed as 16. The IC50 with RCC4 cells (Table 1) is 5 µM.

On to `COC(=O)/C=C/c1sc(Nc2cccc(C)c2)nc1-c1ccncc1` [Compound 78, Methyl (2E)-3-[2-[(3-Methylphenyl)amino]-4-(4-pyridinyl)-1,3-thiazol-5-yl]-2-propenoate], for which the Ratio with RCC4/VHL cells (Table 1) is 2.8. This compound registered an IC50 with RCC4 cells (Table 1) of 2.5 µM.

Consider `CC(=O)c1cccc(Nc2nc(-c3ccncc3)cs2)c1` [Compound 125, 1-(3-{[4-(4-Pyridinyl)-1,3-thiazol-2-yl]amino}phenyl)ethanone], for which the Ratio in the assay on RCC4/VHL cells (Table 1) was over 3.1. This compound had an IC50 with RCC4 cells (Table 1) of 13 µM.

Regarding `Fc1ccc(Nc2nc(-c3ccncc3)cs2)cc1` [Compound 33, N-(4-Fluorophenyl)-4-(4-pyridinyl)-1,3-thiazol-2-amine], the Ratio in the assay with RCC4/VHL cells (Table 1) is over 7. This compound had an IC50 in the assay on RCC4 cells (Table 1) of 6 µM.

In the case of `OCc1sc(Nc2ccccc2)nc1-c1ccncc1` [Compound 73, [2-(Phenylamino)-4-(4-pyridinyl)-1,3-thiazol-5-yl]methanol], in the assay on RCC4/VHL cells (Table 1), the Ratio is recorded as over 1.3. Further, inhibition in the assay with RCC4 cells (Table 1) was half-maximal at 30 µM (IC50).

Take `CN(C)CCOc1ccc(Nc2nc(-c3ccncc3)cs2)cc1` [Compound 29, N-{4-[2-(Dimethylamino)ethoxy]phenyl}-4-(4-pyridinyl)-1,3-thiazol-2-amine]: the Ratio with RCC4/VHL cells (Table 1) is listed as 1.3. In the assay with RCC4 cells (Table 1), this compound came in with an IC50 of 60 µM.

For `Cc1cccc(Nc2nc(-c3cc(Cl)nc(Cl)c3)cs2)c1` [Compound 158, N-[4-(2,6-Dichloro-4-pyridinyl)-1,3-thiazol-2-yl]-N-(3-methylphenyl)amine], the Ratio with RCC4/VHL cells (Table 2) was 2.3. For the same compound, the IC50 with RCC4 cells (Table 2) worked out at 15 µM.

As to `CCc1cc(-c2csc(Nc3cccc(C)c3)n2)ccn1` [Compound 160, 4-(2-Ethyl-4-pyridinyl)-N-(3-methylphenyl)-1,3-thiazol-2-amine], in the assay with RCC4/VHL cells (Table 2), the Ratio is over 6.3. The compound further came in with an IC50 with RCC4 cells (Table 2) of 6.4 µM.

As for `OCc1sc(Nc2ccc3c(c2)CCC3)nc1-c1ccncc1` [Compound 76, [2-(2,3-Dihydro-1H-inden-5-ylamino)-4-(4-pyridinyl)-1,3-thiazol-5-yl]methanol], the Ratio in the assay with RCC4/VHL cells (Table 1) is listed as 1.4. The IC50 with RCC4 cells (Table 1) stood at 6.8 µM.

Turning to `c1cc(-c2csc(Nc3ccc4c(c3)CCC4)n2)ccn1` [Compound 47, N-(2,3-Dihydro-1H-inden-5-yl)-4-(4-pyridinyl)-1,3-thiazol-2-amine], the Ratio in the assay with RCC4/VHL cells (Table 1) is 10. Besides, in the assay with RCC4 cells (Table 1), half-maximal inhibition (IC50) required 2 µM.

For the compound `Brc1cccc(Nc2nc(-c3ccncc3)cs2)c1` [Compound 123, N-(3-Bromophenyl)-4-(4-pyridinyl)-1,3-thiazol-2-amine], the Ratio with RCC4/VHL cells (Table 1) is over 3.2. In the assay on RCC4 cells (Table 1), this compound came in with an IC50 of 12.4 µM.

For `COc1ccc(Nc2nc(-c3ccncc3)cs2)cc1` [Compound 27, N-(4-Methoxyphenyl)-4-(4-pyridinyl)-1,3-thiazol-2-amine], the Ratio in the assay with RCC4/VHL cells (Table 1) came out at 3.6. In addition, the IC50 in the assay with RCC4 cells (Table 1) is 14 µM.

For `Cc1ccc(Nc2nc(-c3ccncc3)c(CO)s2)cc1` [Compound 75, [2-[(4-Methylphenyl)amino]-4-(4-pyridinyl)-1,3-thiazol-5-yl]methanol], the Ratio with RCC4/VHL cells (Table 1) stood at 1.2. For the same compound, the IC50 in the assay with RCC4 cells (Table 1) was 14 µM.

With `Cc1cccc(Nc2nc(-c3ccncc3)c(C(N)=O)s2)c1` [Compound 91, 2-[(3-Methylphenyl)amino]-4-(4-pyridinyl)-1,3-thiazole-5-carboxamide], the Ratio with RCC4/VHL cells (Table 1) is over 2.0. Moreover, in the assay on RCC4 cells (Table 1), the IC50 worked out at 19.2 µM.

With `Cc1sc(Nc2ccc3c(c2)CCC3)nc1-c1ccncc1` [Compound 72, N-(2,3-Dihydro-1H-inden-5-yl)-5-methyl-4-(4-pyridinyl)-1,3-thiazol-2-amine], in the assay with RCC4/VHL cells (Table 1), the Ratio stood at 1.5. The compound also yielded a 50% inhibitory concentration (IC50) in the assay with RCC4 cells (Table 1) of 12 µM.

Turning to `COc1ccc(Nc2nc(-c3ccncc3)cs2)cc1OC` [Compound 55, N-(3,4-Dimethoxyphenyl)-4-(4-pyridinyl)-1,3-thiazol-2-amine], the Ratio in the assay with RCC4/VHL cells (Table 1) amounted to 1.9. This compound yielded an IC50 with RCC4 cells (Table 1) of 24 µM.

In the case of `Cc1cccc(Nc2nc(-c3ccnc(C#CCO)c3)cs2)c1` [Compound 161, 3-(4-{2-[(3-Methylphenyl)amino]-1,3-thiazol-4-yl}-2-pyridinyl)-2-propyn-1-ol], the Ratio in the assay on RCC4/VHL cells (Table 2) is on record as 1.6. The same compound returned an IC50 in the assay with RCC4 cells (Table 2) of 9.3 µM.

In the case of `C#Cc1cc(-c2csc(Nc3cccc(C)c3)n2)ccn1` [Compound 159, 4-(2-Ethynyl-4-pyridinyl)-N-(3-methylphenyl)-1,3-thiazol-2-amine], the Ratio in the assay on RCC4/VHL cells (Table 2) was over 2.2. This compound also registered an IC50 in the assay with RCC4 cells (Table 2) of 17.8 µM.

For `Cc1cccc(Nc2nc(-c3ccncc3Br)cs2)c1` [Compound 178, 4-(3-Bromo-4-pyridinyl)-N-(3-methylphenyl)-1,3-thiazol-2-amine], the Ratio with RCC4/VHL cells (Table 2) is reported as over 10. Moreover, the IC50 in the assay on RCC4 cells (Table 2) was found to be 3.9 µM.

Regarding `CC(=O)Nc1cnccc1-c1csc(Nc2cccc(C)c2)n1` [Compound 183], the Ratio in the assay with RCC4/VHL cells (Table 2) was 1.0. The same compound showed an IC50 in the assay on RCC4 cells (Table 2) of 33.3 µM.

`Cc1cccc(Nc2nc(-c3ccnc4ccccc34)cs2)c1` [Compound 192, N-(3-Methylphenyl)-4-(4-quinolinyl)-1,3-thiazol-2-amine]: the Ratio in the assay with RCC4/VHL cells (Table 2) was found to be 1.6. The compound also returned an IC50 in the assay on RCC4 cells (Table 2) of 12.3 µM.

Turning to `Oc1ccccc1Nc1nc(-c2ccncc2)cs1` [Compound 107, 2-{[4-(4-Pyridinyl)-1,3-thiazol-2-yl]amino}phenol], the Ratio in the assay with RCC4/VHL cells (Table 1) was over 3.1. In the assay with RCC4 cells (Table 1), this compound came in with an IC50 of 12.8 µM.

Turning to `Cc1cccc(Nc2nc(-c3ccncc3)c(CCCN3CCOCC3)s2)c1` [Compound 82, N-(3-Methylphenyl)-5-[3-(4-morpholinyl)propyl]-4-(4-pyridinyl)-1,3-thiazol-2-amine], in the assay with RCC4/VHL cells (Table 1), the Ratio is recorded as 1.6. Besides, in the assay on RCC4 cells (Table 1), the IC50 is 5.8 µM.

On to `CC(C)c1cccc(Nc2nc(-c3ccncc3)cs2)c1` [Compound 9, N-(3-Isopropylphenyl)-4-(4-pyridinyl)-1,3-thiazol-2-amine], for which, in the assay on RCC4/VHL cells (Table 1), the Ratio is on record as 1.4. This compound showed an IC50 in the assay on RCC4 cells (Table 1) of 17 µM.

For the compound `Cc1cccc(Nc2nc(-c3ccncc3)c(C)s2)c1` [Compound 71, 5-Methyl-N-(3-methylphenyl)-4-(4-pyridinyl)-1,3-thiazol-2-amine], in the assay on RCC4/VHL cells (Table 1), the Ratio was over 4. Further, in the assay with RCC4 cells (Table 1), the IC50 came to 10 µM.

In the case of `Cc1cccc(Nc2nc(-c3ccncc3)c(CN3CCCCC3)s2)c1` [Compound 85, N-(3-Methylphenyl)-5-(1-piperidinylmethyl)-4-(4-pyridinyl)-1,3-thiazol-2-amine], the Ratio in the assay on RCC4/VHL cells (Table 1) came to 1.9. In the assay with RCC4 cells (Table 1), this compound showed an IC50 of 13 µM.

Turning to `Cc1cccc(Nc2nc(-c3ccncc3)c(CN3CCOCC3)s2)c1` [Compound 86, N-(3-Methylphenyl)-5-(4-morpholinylmethyl)-4-(4-pyridinyl)-1,3-thiazol-2-amine], in the assay with RCC4/VHL cells (Table 1), the Ratio worked out at 4.8. In the assay with RCC4 cells (Table 1), it took 2.5 µM to reach half-maximal inhibition (IC50).
